Active and inactive are the calls of the source. No cut-off for these calls is given here.
How the values were obtained:
[1] = molecular target: Dual specificity mitogen-activated protein kinase kinase 1 (Homo sapiens) (UniProt Q02750); assay: Inhibition of human MEK1 at 1 uM by Eurofins kinase assay
MOLM-13 [2] = assay: Induction of apoptosis in human MOLM-13 cells assessed as viable cells at 0.3 uM measured after 48 hrs by annexin-V and PI staining based flow cytometry analysis (reference value: 88.7%); format: functional; settings: read-out: Activity
MOLM-13 [3] = assay: Induction of apoptosis in human MOLM-13 cells assessed as late apoptotic cells at 3 uM measured after 48 hrs by annexin-V and PI staining based flow cytometry analysis (reference value: 2.28%); format: functional
MOLM-13 [4] = assay: Induction of cell cycle arrest in human MOLM-13 cells assessed as accumulation of cells at G1 phase at 1 uM measured after 48 hrs by PI staining based flow cytometry analysis (reference value: 42.8%); format: functional
[5] = molecular target: Death-associated protein kinase 1 (Homo sapiens) (UniProt P53355); assay: Inhibition of human DAPK1 at 1 uM by Eurofins kinase assay
[6] = Oral bioavailability in Sprague-Dawley rat at 20 mg/kg measured upto 48 hrs by LC-MS/MS analysis; format: ADME, organism-based; settings: in vivo
[7] = molecular target: Tyrosine-protein kinase BTK (Homo sapiens) (UniProt Q06187); assay: Inhibition of human BTK at 1 uM by Eurofins kinase assay
[8] = molecular target: Insulin receptor (Homo sapiens) (UniProt P06213); assay: Inhibition of human INSR at 1 uM by Eurofins kinase assay
MV4-11 = assay: Antiproliferative activity against human MV4-11 cells assessed as inhibition of cell growth measured after 72 hrs by Celltiter-glo luminescent cell viability assay; format: functional, cell-based; settings: MV4-11, 72 h
[9] = tested on: Mast/stem cell growth factor receptor Kit (Homo sapiens), P10721 [D816V]; assay: Inhibition of human c-kit D816V mutant at 1 uM by Eurofins kinase assay
MOLM-13 [10] = assay: Induction of apoptosis in human MOLM-13 cells assessed as early apoptotic cells at 0.3 uM measured after 48 hrs by annexin-V and PI staining based flow cytometry analysis (reference value: 8.92%); format: functional
[11] = AUC (0 to infinity) in Sprague-Dawley rat at 20 mg/kg, po measured upto 48 hrs by LC-MS/MS analysis; format: ADME, organism-based; settings: in vivo
HL-60 = assay: Antiproliferative activity against human HL-60 cells harbouring wild type FLT3 assessed as inhibition of cell growth measured after 72 hrs by Celltiter-glo luminescent cell viability assay; format: functional, cell-based; settings: HL-60, 72 h
[12] = molecular target: Platelet-derived growth factor receptor alpha (Homo sapiens) (UniProt P16234); assay: Inhibition of human PDGFRalpha at 1 uM by Eurofins kinase assay
[13] = Half life in Sprague-Dawley rat at 20 mg/kg, po measured upto 48 hrs by LC-MS/MS analysis; format: ADME, organism-based; settings: in vivo
[14] = molecular target: Wee1-like protein kinase (Homo sapiens) (UniProt P30291); assay: Inhibition of human Wee1 at 1 uM by Eurofins kinase assay
THP-1 = assay: Antiproliferative activity against human THP-1 cells harbouring wild type FLT3 assessed as inhibition of cell growth measured after 72 hrs by Celltiter-glo luminescent cell viability assay; format: functional, cell-based; settings: THP-1, 72 h
MOLM-14 = assay: Antiproliferative activity against human MOLM-14 cells harbouring FLT3-ITD assessed as inhibition of cell growth measured after 72 hrs by Celltiter-glo luminescent cell viability assay; format: functional, cell-based; settings: MOLM-14, 72 h
[15] = molecular target: Angiopoietin-1 receptor (Homo sapiens) (UniProt Q02763); assay: Inhibition of human […] at 1 uM by Eurofins kinase assay
[16] = molecular target: Tyrosine-protein kinase ZAP-70 (Homo sapiens) (UniProt P43403); assay: Inhibition of human ZAP-70 at 1 uM by Eurofins kinase assay
[17] = molecular target: Epidermal growth factor receptor (Homo sapiens) (UniProt P00533); assay: Inhibition of human EGFR at 1 uM by Eurofins kinase assay
[18] = Tmax in Sprague-Dawley rat at 20 mg/kg, po measured upto 48 hrs by LC-MS/MS analysis; format: ADME, organism-based; settings: in vivo
[19] = molecular target: Platelet-derived growth factor receptor beta (Homo sapiens) (UniProt P09619); assay: Inhibition of human PDGFRbeta at 1 uM by Eurofins kinase assay
[20] = molecular target: Receptor-type tyrosine-protein kinase FLT3 (Homo sapiens) (UniProt P36888); assay: Inhibition of FLT3 phosphorylation in human MOLM-13 cells at 40 nM incubated for 2 hrs by Western blot analysis relative to control; format: cell-based
Jurkat = assay: Antiproliferative activity against human Jurkat cells assessed as inhibition of cell growth measured after 72 hrs by Celltiter-glo luminescent cell viability assay; format: functional, cell-based
SBC-5 = assay: Antiproliferative activity against human SBC-5 cells assessed as inhibition of cell growth measured after 72 hrs by Celltiter-glo luminescent cell viability assay; format: functional, cell-based; settings: SBC-5, 72 h
[21] = molecular target: Serine/threonine-protein kinase WNK1 (Homo sapiens) (UniProt Q9H4A3); assay: Inhibition of human WNK1 at 1 uM by Eurofins kinase assay
[22] = Clearance in Sprague-Dawley rat at 5 mg/kg, iv measured upto 48 hrs by LC-MS/MS analysis; format: ADME, organism-based; settings: in vivo
[23] = Tmax in Sprague-Dawley rat at 5 mg/kg, iv measured upto 48 hrs by LC-MS/MS analysis; format: ADME, organism-based; settings: in vivo
[24] = molecular target: Mast/stem cell growth factor receptor Kit (Homo sapiens) (UniProt P10721); assay: Inhibition of human ckit at 1 uM by Eurofins kinase assay
[25] = MRT (0 to t) in Sprague-Dawley rat at 5 mg/kg, iv measured upto 48 hrs by LC-MS/MS analysis; format: ADME, organism-based; settings: in vivo
Homo sapiens = species: Homo sapiens; assay: Inhibition of human cSRC at 1 uM by Eurofins kinase assay
[26] = molecular target: Fibroblast growth factor receptor 4 (Homo sapiens) (UniProt P22455); assay: Inhibition of human FGFR4 at 1 uM by Eurofins kinase assay
MOLM-13 [27] = assay: Induction of apoptosis in human MOLM-13 cells assessed as late apoptotic cells at 0.3 uM measured after 48 hrs by annexin-V and PI staining based flow cytometry analysis (reference value: 2.28%); format: functional
MOLM-13 [28] = assay: Induction of apoptosis in human MOLM-13 cells assessed as early apoptotic cells at 1 uM measured after 48 hrs by annexin-V and PI staining based flow cytometry analysis (reference value: 8.92%); format: functional
[29] = molecular target: Non-receptor tyrosine-protein kinase TYK2 (Homo sapiens) (UniProt P29597); assay: Inhibition of human TYK2 at 1 uM by Eurofins kinase assay
[30] = Toxicity in female NSG mouse assessed as effect on body weight loss at 20 to 40 mg/kg, po measured after 21 days; format: organism-based; settings: in vivo, 504 h, dose 20-40 mg/kg, time 21 day
[31] = Antiproliferative activity against mouse Ba/F3 FLT3-ITD cells assessed as inhibition of cell growth measured after 72 hrs by Celltiter-glo luminescent cell viability assay; format: functional, cell-based
[32] = molecular target: Receptor-type tyrosine-protein kinase FLT3 (Homo sapiens, UniProt P36888, ITD); assay: Inhibition of FLT3 ITD mutant (unknown origin) preincubated for 10 mins followed by addition of peptide solution by caliper mobility shift assay
Sequence of Receptor-type tyrosine-protein kinase FLT3 (P36888 whole entry, looked up, stated change not applied): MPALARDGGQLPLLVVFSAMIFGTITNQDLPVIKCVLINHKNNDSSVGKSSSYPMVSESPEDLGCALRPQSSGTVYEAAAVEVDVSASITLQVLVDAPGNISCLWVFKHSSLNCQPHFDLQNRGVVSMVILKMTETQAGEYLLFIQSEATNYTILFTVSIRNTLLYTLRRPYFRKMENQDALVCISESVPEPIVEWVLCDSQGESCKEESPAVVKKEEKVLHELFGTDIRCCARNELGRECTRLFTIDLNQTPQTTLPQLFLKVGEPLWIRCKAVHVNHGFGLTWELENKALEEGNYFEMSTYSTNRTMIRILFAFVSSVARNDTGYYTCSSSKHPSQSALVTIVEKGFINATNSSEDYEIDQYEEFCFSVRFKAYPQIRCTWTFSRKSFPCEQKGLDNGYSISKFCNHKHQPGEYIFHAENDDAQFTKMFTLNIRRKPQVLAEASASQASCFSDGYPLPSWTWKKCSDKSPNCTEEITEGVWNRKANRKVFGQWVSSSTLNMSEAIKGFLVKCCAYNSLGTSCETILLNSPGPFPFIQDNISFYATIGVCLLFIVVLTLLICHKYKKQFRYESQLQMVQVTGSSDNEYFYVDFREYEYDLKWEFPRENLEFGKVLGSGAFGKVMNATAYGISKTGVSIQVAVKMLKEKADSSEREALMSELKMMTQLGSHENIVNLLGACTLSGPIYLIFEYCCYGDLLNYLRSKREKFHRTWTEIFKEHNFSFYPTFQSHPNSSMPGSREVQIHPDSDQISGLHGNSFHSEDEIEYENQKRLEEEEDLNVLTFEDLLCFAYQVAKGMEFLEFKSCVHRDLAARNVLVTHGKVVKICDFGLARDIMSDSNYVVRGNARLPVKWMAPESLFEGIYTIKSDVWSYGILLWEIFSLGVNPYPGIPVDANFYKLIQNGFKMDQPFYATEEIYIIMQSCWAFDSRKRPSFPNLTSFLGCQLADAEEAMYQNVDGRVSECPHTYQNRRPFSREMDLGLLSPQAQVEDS

Sequence of Non-receptor tyrosine-protein kinase TYK2 (Homo sapiens) (P29597 whole entry): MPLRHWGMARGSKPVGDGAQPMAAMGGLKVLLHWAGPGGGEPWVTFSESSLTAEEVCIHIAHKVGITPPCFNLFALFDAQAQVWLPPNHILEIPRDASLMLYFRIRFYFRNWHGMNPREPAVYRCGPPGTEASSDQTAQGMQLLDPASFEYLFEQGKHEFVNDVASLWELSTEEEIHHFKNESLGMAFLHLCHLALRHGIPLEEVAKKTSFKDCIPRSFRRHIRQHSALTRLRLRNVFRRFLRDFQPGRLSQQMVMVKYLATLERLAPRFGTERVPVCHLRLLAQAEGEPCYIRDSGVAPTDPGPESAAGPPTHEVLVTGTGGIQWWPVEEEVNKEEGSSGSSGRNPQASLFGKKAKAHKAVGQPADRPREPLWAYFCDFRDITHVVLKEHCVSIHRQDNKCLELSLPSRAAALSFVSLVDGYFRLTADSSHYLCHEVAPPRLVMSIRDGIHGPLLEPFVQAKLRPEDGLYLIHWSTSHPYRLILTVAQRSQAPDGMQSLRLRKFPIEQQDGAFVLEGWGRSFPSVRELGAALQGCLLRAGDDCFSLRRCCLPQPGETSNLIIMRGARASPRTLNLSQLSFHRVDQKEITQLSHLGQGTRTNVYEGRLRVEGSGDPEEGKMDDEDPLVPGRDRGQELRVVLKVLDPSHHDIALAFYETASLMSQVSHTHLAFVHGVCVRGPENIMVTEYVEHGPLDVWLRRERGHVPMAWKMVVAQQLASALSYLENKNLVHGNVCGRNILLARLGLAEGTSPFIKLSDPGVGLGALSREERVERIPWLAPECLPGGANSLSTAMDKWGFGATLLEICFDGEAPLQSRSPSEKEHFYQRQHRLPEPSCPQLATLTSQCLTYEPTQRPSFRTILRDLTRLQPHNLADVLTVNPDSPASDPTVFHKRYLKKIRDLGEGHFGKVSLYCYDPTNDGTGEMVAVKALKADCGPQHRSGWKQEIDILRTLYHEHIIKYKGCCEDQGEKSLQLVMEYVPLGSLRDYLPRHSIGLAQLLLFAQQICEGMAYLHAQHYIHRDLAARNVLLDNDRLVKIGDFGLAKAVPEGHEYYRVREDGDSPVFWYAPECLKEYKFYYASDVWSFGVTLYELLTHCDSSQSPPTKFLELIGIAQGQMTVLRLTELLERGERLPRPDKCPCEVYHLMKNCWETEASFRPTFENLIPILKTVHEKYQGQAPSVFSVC
Sequence of Receptor-type tyrosine-protein kinase FLT3 (Homo sapiens) (P36888 whole entry): as the sequence (P36888 whole entry, looked up, stated change not applied) above
Sequence of Epidermal growth factor receptor (Homo sapiens) (P00533 whole entry): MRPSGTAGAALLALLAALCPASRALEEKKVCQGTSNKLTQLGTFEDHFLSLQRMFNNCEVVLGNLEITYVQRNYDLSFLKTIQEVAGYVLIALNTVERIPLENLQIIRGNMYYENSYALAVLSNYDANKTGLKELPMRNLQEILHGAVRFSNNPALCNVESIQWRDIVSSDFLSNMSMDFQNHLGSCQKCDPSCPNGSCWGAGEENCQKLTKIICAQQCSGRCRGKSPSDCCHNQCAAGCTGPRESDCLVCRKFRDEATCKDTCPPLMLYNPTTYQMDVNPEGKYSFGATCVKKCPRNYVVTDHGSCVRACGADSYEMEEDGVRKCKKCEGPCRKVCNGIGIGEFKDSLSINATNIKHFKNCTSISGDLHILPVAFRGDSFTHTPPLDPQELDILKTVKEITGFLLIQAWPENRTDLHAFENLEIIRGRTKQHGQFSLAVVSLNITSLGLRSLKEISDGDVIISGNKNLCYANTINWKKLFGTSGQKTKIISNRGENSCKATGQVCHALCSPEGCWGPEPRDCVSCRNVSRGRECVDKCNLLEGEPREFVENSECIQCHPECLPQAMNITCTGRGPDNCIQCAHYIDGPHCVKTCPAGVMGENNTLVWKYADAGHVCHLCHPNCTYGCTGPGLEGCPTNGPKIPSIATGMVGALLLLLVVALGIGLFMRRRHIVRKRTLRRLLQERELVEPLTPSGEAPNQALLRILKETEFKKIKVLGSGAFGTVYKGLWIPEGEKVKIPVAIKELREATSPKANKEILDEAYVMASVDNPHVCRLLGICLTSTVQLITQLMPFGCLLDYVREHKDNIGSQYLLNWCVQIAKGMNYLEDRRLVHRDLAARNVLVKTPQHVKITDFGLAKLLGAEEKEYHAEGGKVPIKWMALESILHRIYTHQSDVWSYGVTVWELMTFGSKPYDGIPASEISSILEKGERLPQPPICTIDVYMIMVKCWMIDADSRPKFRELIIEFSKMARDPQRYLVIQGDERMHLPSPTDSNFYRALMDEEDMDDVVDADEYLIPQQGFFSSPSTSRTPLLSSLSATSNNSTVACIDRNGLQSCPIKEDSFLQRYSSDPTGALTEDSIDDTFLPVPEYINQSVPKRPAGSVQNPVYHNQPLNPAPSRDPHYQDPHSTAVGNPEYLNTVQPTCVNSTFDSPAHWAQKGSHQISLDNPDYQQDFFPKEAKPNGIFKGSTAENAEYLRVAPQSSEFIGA
Sequence of Mast/stem cell growth factor receptor Kit (Homo sapiens), P10721 [D816V] (P10721 whole entry D816V): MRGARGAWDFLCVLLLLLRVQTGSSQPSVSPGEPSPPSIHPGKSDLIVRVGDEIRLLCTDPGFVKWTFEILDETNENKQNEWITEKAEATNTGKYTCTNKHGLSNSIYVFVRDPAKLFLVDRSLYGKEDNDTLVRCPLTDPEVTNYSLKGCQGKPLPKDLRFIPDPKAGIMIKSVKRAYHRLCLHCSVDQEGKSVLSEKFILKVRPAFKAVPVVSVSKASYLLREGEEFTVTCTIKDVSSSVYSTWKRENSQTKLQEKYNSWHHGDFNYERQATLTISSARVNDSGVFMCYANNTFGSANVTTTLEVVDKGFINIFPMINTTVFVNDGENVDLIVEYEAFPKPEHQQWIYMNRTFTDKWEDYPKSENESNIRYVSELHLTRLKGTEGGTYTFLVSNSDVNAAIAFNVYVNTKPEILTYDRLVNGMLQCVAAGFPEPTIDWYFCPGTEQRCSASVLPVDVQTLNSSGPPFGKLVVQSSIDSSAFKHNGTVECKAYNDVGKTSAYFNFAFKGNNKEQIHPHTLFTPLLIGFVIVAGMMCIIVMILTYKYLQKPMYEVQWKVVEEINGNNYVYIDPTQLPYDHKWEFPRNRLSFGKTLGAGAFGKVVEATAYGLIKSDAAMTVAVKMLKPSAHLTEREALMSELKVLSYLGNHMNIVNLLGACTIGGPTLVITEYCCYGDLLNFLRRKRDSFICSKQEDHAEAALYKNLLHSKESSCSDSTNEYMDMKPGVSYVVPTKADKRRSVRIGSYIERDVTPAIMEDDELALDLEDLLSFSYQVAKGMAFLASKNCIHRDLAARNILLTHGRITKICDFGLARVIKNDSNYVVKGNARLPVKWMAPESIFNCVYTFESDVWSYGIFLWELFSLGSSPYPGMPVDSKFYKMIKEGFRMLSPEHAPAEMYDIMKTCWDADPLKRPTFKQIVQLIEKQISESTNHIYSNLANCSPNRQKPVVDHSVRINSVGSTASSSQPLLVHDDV
Sequence of Dual specificity mitogen-activated protein kinase kinase 1 (Homo sapiens) (Q02750 whole entry): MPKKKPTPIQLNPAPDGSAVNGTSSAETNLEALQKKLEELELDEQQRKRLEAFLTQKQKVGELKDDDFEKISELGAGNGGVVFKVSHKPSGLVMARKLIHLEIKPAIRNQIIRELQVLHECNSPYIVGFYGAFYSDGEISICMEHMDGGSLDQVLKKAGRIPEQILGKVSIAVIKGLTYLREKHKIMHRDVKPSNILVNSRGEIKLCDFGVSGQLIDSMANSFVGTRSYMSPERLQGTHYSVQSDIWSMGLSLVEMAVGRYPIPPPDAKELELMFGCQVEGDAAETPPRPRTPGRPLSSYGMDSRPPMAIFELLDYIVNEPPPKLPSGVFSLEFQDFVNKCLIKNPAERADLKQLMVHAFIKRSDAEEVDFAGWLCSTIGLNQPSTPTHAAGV
Sequence of Mast/stem cell growth factor receptor Kit (Homo sapiens) (P10721 whole entry): as the sequence (P10721 whole entry D816V) above, with V816D counted along it

inhibition [1]: inactive
bioavailability [6]: 19.2%
inhibition [7]: inactive
inhibition [8]: inactive
IC50 (MV4-11): 130 nM
inhibition [9]: inactive
AUC(0-inf) [11]: 46100 ng·h/mL
IC50 (HL-60): 7.7 µM
inhibition [12]: inactive
half-life [13]: 214 min
inhibition [14]: inactive
IC50 (THP-1): 10.8 µM
IC50 (MOLM-14): 220 nM
inhibition [15]: inactive
inhibition [16]: inactive
inhibition [17]: inactive
Tmax [18]: 1.83 h
inhibition [19]: inactive
inhibition [20]: 100%
IC50 (Jurkat): > 30 µM
inhibition [21]: inactive
clearance [22]: 1.41 mL/min/kg
Tmax [23]: 1.8 min
inhibition [24]: inactive
MRT last at 48 h [25]: 3.01 h
inhibition (Homo sapiens): inactive
inhibition [26]: inactive
inhibition [29]: inactive
IC50 [32]: 69 nM
SMILES: O=C(Nc1ccc(Oc2ccnc(NC(=O)N3CC(O)C3)c2)c(F)c1)c1cn(-c2cccnc2)nn1
viability at 0.3 µM (MOLM-13 [2]): 68.4%
Activity (MOLM-13 [3]): 11%
Activity (MOLM-13 [4]): 87.7%
inhibition [5]: inactive
Activity (MOLM-13 [10]): 25%
IC50 (SBC-5): > 30 µM
Activity (MOLM-13 [27]): 6.54%
Activity (MOLM-13 [28]): 33.6%
Activity [30]: Non-toxic
IC50 [31]: 85 nM
